Consider 1 molecule from US7485641B2, “Substituted 3-amino-pyrrolidino-4-lactams” (Pfizer, Inc., priority 2006, dated 2009).

One test has as its target T1, DPP-IV (Homo sapiens, UniProt P27487).
T1 construct: purchased Enzyme Systems Products SPE-01
As to the kind of experiment: In vitro assay for dipeptidyl peptidase inhibition. In kind it is biochemical. The conditions noted are these: n-value given in brackets; read-out: DPP-IV IC50.

Another test has as its system KK/H1J mice. As to the kind of experiment: In vivo assay for glucose lowering (oral glucose tolerance test). To be noted: 4-6 week old fasted KK/H1J mice, oral dosing in 0.5% methylcellulose, glucose at 15 minutes, plasma glucose at 45 minutes. The procedure:
The glucose lowering effects of the compound of Example 2 were exemplified in 4-6 week old KK/H1J mice (Jackson Labs) in the context of an oral glucose tolerance test.
The mice were fasted overnight (about 14-18 hours), but allowed free access to water. After fasting, (time “t”=0), 25 μL of blood was drawn from the retro-orbital sinus and added to 0.025% heparinized saline (100 μL) on ice. The mice (10 per group) were then orally dosed with a solution of a compound of formula (1) in 0.5% methylcellulose (0.2 mL/mouse). Two controls groups received only 0.5% methylcellulose. At time=15 minutes, the mice were bled, as described above, and then dosed with […] glucose in distilled water (0.2 mL/mouse). The first control group was dosed with glucose. The second control group was dosed with water. At time=45 minutes, the mice were again bled, as described above. The blood samples were centrifuged, the plasma collected and analyzed for glucose content on a Roche-Hitachi 912 glucose analyzer.

T1 sequence (P27487 whole entry, species assumed): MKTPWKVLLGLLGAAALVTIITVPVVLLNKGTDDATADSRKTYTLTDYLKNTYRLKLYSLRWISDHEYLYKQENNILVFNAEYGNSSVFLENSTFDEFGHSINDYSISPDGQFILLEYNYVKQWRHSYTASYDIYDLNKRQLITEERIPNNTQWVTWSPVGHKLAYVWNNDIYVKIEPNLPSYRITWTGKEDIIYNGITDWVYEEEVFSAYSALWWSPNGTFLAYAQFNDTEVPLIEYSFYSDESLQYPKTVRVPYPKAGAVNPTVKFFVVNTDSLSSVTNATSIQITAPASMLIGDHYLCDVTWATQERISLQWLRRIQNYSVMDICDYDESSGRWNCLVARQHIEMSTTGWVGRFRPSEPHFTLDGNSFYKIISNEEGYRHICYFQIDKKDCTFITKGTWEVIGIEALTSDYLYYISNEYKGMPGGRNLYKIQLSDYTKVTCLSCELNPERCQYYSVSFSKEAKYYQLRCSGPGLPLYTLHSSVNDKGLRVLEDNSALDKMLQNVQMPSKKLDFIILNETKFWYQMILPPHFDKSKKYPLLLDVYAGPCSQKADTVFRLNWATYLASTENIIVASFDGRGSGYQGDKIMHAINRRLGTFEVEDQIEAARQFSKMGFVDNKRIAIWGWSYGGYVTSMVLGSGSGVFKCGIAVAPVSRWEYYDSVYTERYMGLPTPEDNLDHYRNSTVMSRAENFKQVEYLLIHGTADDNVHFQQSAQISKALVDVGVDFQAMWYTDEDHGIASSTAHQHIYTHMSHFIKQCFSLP

`N[C@H]1CN(c2cc(N3CCC(F)(F)C3)ncn2)C[C@@H]1N1CC(F)(F)CCC1=O` [Example 2, 1-((3S,4S)-4-amino-1-(6-(3,3-difluoropyrrolidin-1-yl)pyrimidin-4-yl)pyrrolidin-3-yl)-5,5-difluoropiperidin-2-one]: on DPP-IV, the IC50 (commonly the concentration at which inhibition is half-maximal) was determined as 8.39 nM. The “percent (%) inhibition of glucose excursion relative to the two control groups” value with KK/H1J mice came out at 39.8%.
